Laboratory results taken from patent US6737383B1, “Herbicidal oxadiazolidines” (priority 1999, dated 2004).

How the values were obtained:
pigweed = experiment: Test B pre/postemergence pigweed; format: in vivo, Amaranthus retroflexus
Procedure, shortened: (§1)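 Herbicidal effect was estimated by eye on a ten-point control scale after plants spent twelve to sixteen days in a greenhouse following soil or foliar treatment. Foliar sprays targeted plants at one to four leaves; all doses were formulated in a non-phytotoxic solvent with surfactant.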

giant foxtail = experiment: Test B pre/postemergence giant foxtail; format: in vivo, Setaria faberii
Procedure, shortened: as §1

rice = experiment: Test B flood test rice; format: in vivo, Oryza sativa
Procedure, shortened: (§2)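 Flood test on plants grown to the 2-leaf stage; treated plants kept in greenhouse twelve to sixteen days, then visually rated against controls on a 0 (no effect) to 10 (complete control) scale.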

velvetleaf = experiment: Test B pre/postemergence velvetleaf; format: in vivo, Abutilon theophrasti
Procedure, shortened: as §1

surinam grass = experiment: Test B pre/postemergence surinam grass; format: in vivo, Brachiaria decumbens
Procedure, shortened: as §1

wheat = experiment: Test B pre/postemergence wheat; format: in vivo, Triticum aestivum
Procedure, shortened: as §1

morningglory = experiment: Test B pre/postemergence morningglory; format: in vivo, Ipomoea hederacea
Procedure, shortened: as §1

purple nutsedge = experiment: Test B pre/postemergence purple nutsedge; format: in vivo, Cyperus rotundus
Procedure, shortened: as §1

rape = experiment: Test B pre/postemergence rape; format: in vivo, Brassica napus
Procedure, shortened: as §1

wild oat = experiment: Test B pre/postemergence wild oat; format: in vivo, Avena fatua
Procedure, shortened: as §1

bedstraw = experiment: Test B pre/postemergence bedstraw; format: in vivo, Galium aparine
Procedure, shortened: as §1

duck salad = experiment: Test B flood test duck salad; format: in vivo, Heteranthera limosa
Procedure, shortened: as §2

crabgrass = experiment: Test B pre/postemergence crabgrass; format: in vivo, Digitaria sanguinalis
Procedure, shortened: as §1

corn = experiment: Test B pre/postemergence corn; format: in vivo, Zea mays
Procedure, shortened: as §1

blackgrass = experiment: Test B pre/postemergence blackgrass; format: in vivo, Alopecurus myosuroides
Procedure, shortened: as §1

soybean = experiment: Test B pre/postemergence soybean; format: in vivo, Glycine max
Procedure, shortened: as §1

[1] = Preemergence, Rate 31 g/ha, visual rating, scale 0 to 10 (0 no effect, 10 complete control)
[2] = Preemergence, Rate 62 g/ha, scale of 0 to 10 where 0 is no effect and 10 is complete control
[3] = Preemergence, Rate 125 g/ha, 0 is no effect, 10 is complete control
[4] = Preemergence, Rate 250 g/ha, scale 0 to 10, 0 is no effect, 10 is complete control
[5] = Rate 31 g/ha, Postemergence, scale 0 to 10
[6] = Rate 62 g/ha, Postemergence, scale of 0 to 10 where 0 is no effect and 10 is complete control
[7] = Rate 125 g/ha, Postemergence, scale 0 to 10
[8] = Rate 31 g/ha, Pre-emergence section (flood test species), scale 0 to 10
[9] = Rate 62 g/ha, headed Pre-emergence (flood test species), scale 0 to 10 (0 no effect, 10 complete control)
[10] = Rate 125 g/ha, Pre-emergence, flood test species, scale 0 to 10 where 0 is no effect and 10 is complete control
[11] = Rate 250 g/ha, Pre-emergence, flood-test species, scale 0 to 10, 0 is no effect, 10 is complete control

## Cc1ccccc1-n1c(=O)on(C(=O)N(c2ccc(F)cc2)C2CCC2)c1=O [Compound 200]
pigweed; [1]
  Redroot pigweed plant response rating: 0
pigweed; [2]
  Redroot pigweed plant response rating: 0
pigweed; [3]
  Redroot pigweed plant response rating (0 to 10 scale): 0
pigweed; [4]
  Redroot pigweed plant response rating: 0
pigweed; [5]
  Redroot pigweed plant response rating: 0
pigweed; [6]
  Redroot pigweed plant response rating: 0
pigweed; [7]
  Redroot pigweed plant response rating: 0
pigweed; Rate 250 g/ha, Postemergence
  Plant response rating (0 to 10; 0 is no effect, 10 is complete control), Redroot pigweed: 0
Giant foxtail; [1]
  Giant foxtail plant response rating: 0
Giant foxtail; [2]
  Giant foxtail plant response rating: 0
Giant foxtail; [3]
  Giant foxtail plant response rating (0 to 10 scale): 4
Giant foxtail; [4]
  Giant foxtail plant response rating: 6
Giant foxtail; [5]
  Giant foxtail plant response rating: 0
Giant foxtail; [6]
  Giant foxtail plant response rating: 0
Giant foxtail; [7]
  Giant foxtail plant response rating: 0
Giant foxtail; Rate 250 g/ha, Postemergence
  Plant response rating (0 to 10; 0 is no effect, 10 is complete control), Giant foxtail: 0
rice; [8]
  Rice plant response rating: 0
rice; [9]
  Rice plant response rating: 0
rice; [10]
  Rice plant response rating: 0
rice; [11]
  Rice plant response rating: 0
velvetleaf; [1]
  Velvetleaf plant response rating: 0
velvetleaf; [2]
  Velvetleaf plant response rating: 0
velvetleaf; [4]
  Velvetleaf plant response rating: 0
velvetleaf; [6]
  Velvetleaf plant response rating: 0
velvetleaf; [7]
  Velvetleaf plant response rating: 0
velvetleaf; Rate 250 g/ha, Postemergence
  Plant response rating (0 to 10; 0 is no effect, 10 is complete control), Velvetleaf: 1
Surinam grass; [1]
  B. signalgrass plant response rating: 0
Surinam grass; [2]
  B. signalgrass plant response rating: 0
Surinam grass; [3]
  B. signalgrass plant response rating (0 to 10 scale): 0
Surinam grass; [4]
  B. signalgrass plant response rating: 0
Surinam grass; [5]
  B. signalgrass plant response rating: 0
Surinam grass; [6]
  B. signalgrass plant response rating: 0
Surinam grass; Rate 125 g/ha, Postemergence, scale 0 (no effect) to 10 (complete control)
  B. signalgrass plant response rating: 0
Surinam grass; Rate 250 g/ha, Postemergence, scale 0 to 10, 0 is no effect, 10 is complete control
  Plant response rating, B. signalgrass: 0
wheat; [1]
  Wheat plant response rating: 0
wheat; [2]
  Wheat plant response rating: 0
wheat; [4]
  Wheat plant response rating: 0
wheat; [6]
  Wheat plant response rating: 0
wheat; [7]
  Wheat plant response rating: 0
wheat; Rate 250 g/ha, Postemergence
  Plant response rating (0 to 10; 0 is no effect, 10 is complete control), Wheat: 0
morningglory; [1]
  Morningglory plant response rating: 0
morningglory; [2]
  Morningglory plant response rating: 0
morningglory; [3]
  Morningglory plant response rating (0 to 10 scale): 0
morningglory; [4]
  Morningglory plant response rating: 0
morningglory; [5]
  Morningglory plant response rating: 0
morningglory; [6]
  Morningglory plant response rating: 0
morningglory; [7]
  Morningglory plant response rating: 0
morningglory; Rate 250 g/ha, Postemergence
  Plant response rating (0 to 10; 0 is no effect, 10 is complete control), Morningglory: 2
Purple nutsedge; [1]
  Nutsedge plant response rating: 0
Purple nutsedge; [2]
  Nutsedge plant response rating: 0
Purple nutsedge; [3]
  Nutsedge plant response rating (0 to 10 scale): 0
Purple nutsedge; [5]
  Nutsedge plant response rating: 0
Purple nutsedge; [6]
  Nutsedge plant response rating: 0
Purple nutsedge; [7]
  Nutsedge plant response rating: 0
Purple nutsedge; Rate 250 g/ha, Postemergence
  Plant response rating (0 to 10; 0 is no effect, 10 is complete control), Nutsedge: 0
rape; [1]
  Rape plant response rating: 0
rape; [2]
  Rape plant response rating: 0
rape; [3]
  Rape plant response rating (0 to 10 scale): 0
rape; [4]
  Rape plant response rating: 0
rape; [5]
  Rape plant response rating: 0
rape; [6]
  Rape plant response rating: 0
rape; [7]
  Rape plant response rating: 0
rape; Rate 250 g/ha, Postemergence
  Plant response rating (0 to 10; 0 is no effect, 10 is complete control), Rape: 0
Wild oat; [1]
  Wild oats plant response rating: 0
Wild oat; [2]
  Wild oats plant response rating: 0
Wild oat; [4]
  Wild oats plant response rating: 0
Wild oat; [6]
  Wild oats plant response rating: 0
Wild oat; [7]
  Wild oats plant response rating: 0
Wild oat; Rate 250 g/ha, Postemergence
  Plant response rating (0 to 10; 0 is no effect, 10 is complete control), Wild oats: 0
bedstraw; [1]
  Bedstraw plant response rating: 0
bedstraw; [4]
  Bedstraw plant response rating: 0
bedstraw; [5]
  Bedstraw plant response rating: 0
bedstraw; [6]
  Bedstraw plant response rating: 0
bedstraw; [7]
  Bedstraw plant response rating: 0
bedstraw; Rate 250 g/ha, Postemergence
  Plant response rating (0 to 10; 0 is no effect, 10 is complete control), Bedstraw: 0
Duck salad; [8]
  Ducksalad plant response rating: 0
Duck salad; [9]
  Ducksalad plant response rating: 0
Duck salad; [10]
  Ducksalad plant response rating: 0
Duck salad; [11]
  Ducksalad plant response rating: 0
crabgrass; [1]
  Crabgrass plant response rating: 0
crabgrass; [2]
  Crabgrass plant response rating: 0
crabgrass; [3]
  Crabgrass plant response rating (0 to 10 scale): 2
crabgrass; [4]
  Crabgrass plant response rating: 6
crabgrass; [5]
  Crabgrass plant response rating: 0
crabgrass; [6]
  Crabgrass plant response rating: 0
crabgrass; [7]
  Crabgrass plant response rating: 1
crabgrass; Rate 250 g/ha, Postemergence
  Plant response rating (0 to 10; 0 is no effect, 10 is complete control), Crabgrass: 2
corn; [1]
  Corn plant response rating: 0
corn; [2]
  Corn plant response rating: 0
corn; [3]
  Corn plant response rating (0 to 10 scale): 0
corn; [4]
  Corn plant response rating: 0
corn; [5]
  Corn plant response rating: 0
corn; [6]
  Corn plant response rating: 0
corn; [7]
  Corn plant response rating: 0
corn; Rate 250 g/ha, Postemergence
  Plant response rating (0 to 10; 0 is no effect, 10 is complete control), Corn: 0
blackgrass; [1]
  Blackgrass plant response rating: 0
blackgrass; [2]
  Blackgrass plant response rating: 0
blackgrass; [3]
  Blackgrass plant response rating (0 to 10 scale): 5
blackgrass; [4]
  Blackgrass plant response rating: 7
blackgrass; [5]
  Blackgrass plant response rating: 0
blackgrass; [6]
  Blackgrass plant response rating: 0
blackgrass; [7]
  Blackgrass plant response rating: 0
blackgrass; Rate 250 g/ha, Postemergence
  Plant response rating (0 to 10; 0 is no effect, 10 is complete control), Blackgrass: 0
soybean; [1]
  Soybean plant response rating: 0
soybean; [2]
  Soybean plant response rating: 0
soybean; [3]
  Soybean plant response rating (0 to 10 scale): 0
soybean; [4]
  Soybean plant response rating: 0
soybean; [6]
  Soybean plant response rating: 2
soybean; [7]
  Soybean plant response rating: 2
soybean; Rate 250 g/ha, Postemergence
  Plant response rating (0 to 10; 0 is no effect, 10 is complete control), Soybean: 2
